The values below are quoted from earlier work in publication PMC9352027, “Targeting lipid biosynthesis pathways for hepatitis B virus cure” (PLoS ONE, 2022).

In this series the test system is ACC1 and ACC2. More on the design: method as in PMID 29705265, PMID 30059671. Conditions: cited from earlier work.

Turning to `COc1ccccc1[C@H](Cn1c(=O)n(C(C)(C)C(=O)O)c(=O)c2c(C)c(-c3ncco3)sc21)OC1CCOCC1` [FIR, Firsocostat], under “observed clinically”, the liver fat reduction is on record as ~ 30%. In addition, the DNL inhibition (partial target inhibition observed clinically) was ~ 70%.
